Like-named read-outs stand apart in the source and are kept apart here.
Legend:
[1] = biological target: T1, human Kv7.2/7.3 channels (Homo sapiens, UniProt O43525+O43526); test: Assessment of recombinantly expressed human Kv7.2/7.3 channel activation on SyncroPatch automated patch clamp platform; type: cell-based; details: for activation of Kv7.2/7.3 channels as measured by the SyncroPatch platform: FIGS. 2A-2G plots
T1 construct: expressed in transfected cells
Description: The in vitro effects of a compound of the present application recombinantly expressed human Kv7.2/7.3 channels are assessed on Syncropatch high throughput electrophysiology platform.
Cell Preparations: CHO cells stably expressing human Kv7.2/7.3 channels were cultured in Ham's F-12 media (Hyclone, Cat #SH30022.02) supplemented with 10% Fetal Bovine Serum, 1×MEM non-essential amino acids, and 400m/ml G418 at 37° C. in 5% CO2. On the day of Syncropatch, the cells were washed once in DPBS (Hyclone, Cat #SH30028.03) for approximately 30 seconds. […] 10 ml of cold media (Ham's F-12 media (Hyclone, Cat #SH30022.02) supplemented with 10% Fetal Bovine Serum, 1×MEM non-essential amino acids, and 400m/ml G418) was added to inactivate Trypsin. The cells were then triturated until a single cell suspension was achieved, and the cell count was performed. The cells were then diluted to a concentration of 5×10^5/ml and placed into the “cell hotel” on the deck of the Syncropatch at 10° C. for about 1 hour to recover. 40 μL of the cell suspension was dispensed into each well of a 384-well Syncropatch chip by the onboard pipettor at the beginning of each Syncropatch assay.
Eight-point dose response curves were created by performing semi-log serial dilutions from 10 mM compound stock solutions in 100% DMSO. […] Final DMSO concentration in the assay was 0.3%. Final assay test concentrations were 30 μM to 0.01 μM or 1 μM to 0.0003 μM. Negative (0.3% DMSO) and positive (30 μM ML213) controls were included in each test run to assess pharmacological responsiveness.
Assessment Protocol: Electrophysiological studies of the compounds were performed using the Nanion SyncroPatch automated patch clamp platform.
Kv7 channels were evaluated using a voltage protocol in which cells were voltage-clamped at a holding potential of −110 mV. Potassium currents were activated with a series of voltage steps from −110 mV to +50 mV in 10 mV intervals with 5.5 seconds between successive voltage steps. Each voltage step was 3 seconds in duration and immediately followed by a 1 second voltage step to −120 mV to generate an inward “tail” current to allow construction of activation (G-V) curves by plotting normalized peak tail current versus the potential of the activating voltage step.
Data Analysis: Data was collected on the Syncropatch platform using PatchControl software (Nanion) and processed and analyzed using DataControl Software (Nanion). Normalized percent activation was calculated and activation curves were fit with a Boltzmann function to determine the midpoint voltage of activation (G-V midpoint) for both pre-compound and post-compound conditions for each of the 384-wells of a sealchip with Pipeline Pilot (Accelrys). The difference in G-V midpoint between pre-compound and post-compound conditions (A V0.5) was plotted as a function of concentration and concentration-response curves were fit with a three-parameter logistic equation {Y=Bottom+(Top−Bottom)/(1+10^(Log EC50−X))} for determination of the EC50 (Graphpad Prism).

[2] = in vivo; cited from earlier work
[3] = concentration-dependent shift in G-V midpoint of activation, CHO cells stably expressing human Kv7.2/7.3, SyncroPatch, read-out: EC50 (95% CI)

T1 sequence (O43525 whole entry): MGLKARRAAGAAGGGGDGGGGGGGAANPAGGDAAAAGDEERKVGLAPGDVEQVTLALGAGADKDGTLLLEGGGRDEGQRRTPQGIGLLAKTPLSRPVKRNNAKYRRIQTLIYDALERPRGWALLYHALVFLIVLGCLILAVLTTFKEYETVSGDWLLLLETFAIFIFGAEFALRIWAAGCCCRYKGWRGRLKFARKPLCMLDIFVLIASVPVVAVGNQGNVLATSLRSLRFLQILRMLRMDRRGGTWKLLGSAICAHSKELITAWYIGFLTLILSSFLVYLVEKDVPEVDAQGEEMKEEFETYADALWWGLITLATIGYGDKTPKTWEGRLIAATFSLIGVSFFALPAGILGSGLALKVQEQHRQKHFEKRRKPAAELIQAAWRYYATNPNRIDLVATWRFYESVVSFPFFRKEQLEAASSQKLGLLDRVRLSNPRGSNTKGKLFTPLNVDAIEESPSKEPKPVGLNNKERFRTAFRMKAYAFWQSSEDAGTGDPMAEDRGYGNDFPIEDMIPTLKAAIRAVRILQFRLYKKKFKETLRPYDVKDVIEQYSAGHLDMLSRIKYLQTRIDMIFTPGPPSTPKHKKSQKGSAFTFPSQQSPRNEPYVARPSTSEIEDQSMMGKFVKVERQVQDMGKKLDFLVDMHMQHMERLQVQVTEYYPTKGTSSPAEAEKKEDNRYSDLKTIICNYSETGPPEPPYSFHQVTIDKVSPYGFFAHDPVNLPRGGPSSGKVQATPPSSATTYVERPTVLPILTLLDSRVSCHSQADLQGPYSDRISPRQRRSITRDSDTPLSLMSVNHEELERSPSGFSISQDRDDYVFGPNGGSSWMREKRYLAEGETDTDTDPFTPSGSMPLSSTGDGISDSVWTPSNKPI
T1 sequence (O43526 whole entry): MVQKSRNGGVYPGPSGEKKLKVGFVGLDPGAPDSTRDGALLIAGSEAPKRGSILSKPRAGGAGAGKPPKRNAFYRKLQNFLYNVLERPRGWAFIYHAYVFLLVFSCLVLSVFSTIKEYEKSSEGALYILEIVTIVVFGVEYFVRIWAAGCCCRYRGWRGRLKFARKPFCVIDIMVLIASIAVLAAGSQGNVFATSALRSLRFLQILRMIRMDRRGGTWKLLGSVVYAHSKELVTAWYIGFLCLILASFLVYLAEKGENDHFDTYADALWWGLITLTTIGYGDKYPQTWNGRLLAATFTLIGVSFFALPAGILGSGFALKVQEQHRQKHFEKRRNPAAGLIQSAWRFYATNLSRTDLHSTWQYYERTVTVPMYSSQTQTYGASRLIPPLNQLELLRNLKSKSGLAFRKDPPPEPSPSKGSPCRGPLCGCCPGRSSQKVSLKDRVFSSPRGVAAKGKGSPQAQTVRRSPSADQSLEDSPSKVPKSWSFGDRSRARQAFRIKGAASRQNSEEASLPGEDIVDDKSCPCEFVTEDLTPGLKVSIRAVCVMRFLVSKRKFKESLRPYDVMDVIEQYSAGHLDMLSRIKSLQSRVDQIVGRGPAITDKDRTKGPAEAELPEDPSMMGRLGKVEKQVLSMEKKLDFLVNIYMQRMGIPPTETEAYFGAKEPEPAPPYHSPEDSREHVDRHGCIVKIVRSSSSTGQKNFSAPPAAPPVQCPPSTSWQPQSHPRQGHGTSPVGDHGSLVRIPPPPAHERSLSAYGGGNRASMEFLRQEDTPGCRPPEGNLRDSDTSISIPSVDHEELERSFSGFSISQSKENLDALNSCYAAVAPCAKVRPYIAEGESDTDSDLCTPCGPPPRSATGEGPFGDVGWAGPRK

Compound	EC50 [1, 3] [nM]	activation of Kv7.2/7.3 channels as measured by the SyncroPatch platform [1]	other results
CCOC(=O)Nc1ccc(N2CCc3cc(F)ccc3C2)c(F)c1N [Compound 17, ethyl (2-amino-3-fluoro-4-(6-fluoro-3,4-dihydroisoquinolin-2(1H)-yl)phenyl)carbamate]	100 to 1000		
CCOC(=O)Nc1ccc(N2CCc3ccc(C(F)(F)F)cc3C2)c(F)c1N [Compound 18, Ethyl (2-amino-3-fluoro-4-(7-(trifluoromethyl)-3,4-dihydroisoquinolin-2(1H)-yl)phenyl)carbamate]	100 to 1000		
CCOC(=O)Nc1ccc(N2CCc3ccc(F)cc3C2)cc1N [Compound 24, ethyl (2-amino-4-(7-fluoro-3,4-dihydroisoquinolin-2(1H)-yl)phenyl)carbamate]	1000 to 5000		
CCOC(=O)Nc1ccc(N2CCc3ccc(C(F)(F)F)cc3C2)cc1N [Compound 22, ethyl (2-amino-4-(7-(trifluoromethyl)-3,4-dihydroisoquinolin-2(1H)-yl)phenyl)carbamate]	100 to 1000		
C=CCN(Cc1ccc(F)cc1)c1ccc(NC(=O)OCC)c(N)c1 [Compound 4, ethyl (4-(allyl(4-fluorobenzyl)amino)-2-aminophenyl)carbamate]	100 to 1000	dose-dependent activation	
CCOC(=O)Nc1ccc(N2CCc3ccc(F)cc3C2)c(F)c1N [Compound 20, ethyl (2-amino-3-fluoro-4-(7-fluoro-3,4-dihydroisoquinolin-2(1H)-yl)phenyl)carbamate]	100 to 1000		
CCOC(=O)Nc1ccc(N2CCc3cc(C(F)(F)F)ccc3C2)c(F)c1N [Compound 19, ethyl (2-amino-3-fluoro-4-(6-(trifluoromethyl)-3,4-dihydroisoquinolin-2(1H)-yl)phenyl)carbamate]	1000 to 5000		
C=CCN(Cc1cccc(C(F)(F)F)c1)c1ccc(NC(=O)OCC)c(N)c1 [Compound 6, ethyl (4-(allyl(3-(trifluoromethyl)benzyl)amino)-2-aminophenyl)carbamate]	100 to 1000	dose-dependent activation	
CCOC(=O)Nc1ccc(N2CCc3cc(C(F)(F)F)ccc3C2)cc1N [Compound 23, ethyl (2-amino-4-(6-(trifluoromethyl)-3,4-dihydroisoquinolin-2(1H)-yl)phenyl)carbamate]	1000 to 5000		
CCOC(=O)Nc1ccc(N2CCc3cc(F)ccc3C2)cc1N [Compound 21, ethyl (2-amino-4-(6-fluoro-3,4-dihydroisoquinolin-2(1H)-yl)phenyl)carbamate]	1000 to 5000		
C#CCN(Cc1ccc(C(F)(F)F)cc1)c1ccc(NC(=O)OCC)c(N)c1F [Compound 8, ethyl (2-amino-3-fluoro-4-(prop-2-yn-1-yl(4-(trifluoromethyl)benzyl)amino)phenyl)carbamate]	100 to 1000	dose-dependent activation	
C#CCN(Cc1cccc(C(F)(F)F)c1)c1ccc(NC(=O)OCC)c(N)c1F [Compound 9, ethyl (2-amino-3-fluoro-4-(prop-2-yn-1-yl(3-(trifluoromethyl)benzyl)amino)phenyl)carbamate]	100 to 1000		
CCOC(=O)Nc1ccc(NCc2ccc(F)cc2)cc1N [Ezogabine, ethyl N-[2-amino-4-[(4-fluorophenyl)methylamino]phenyl]carbamate]			half-life [2]: 8 h
C#CCN(Cc1cccc(C(F)(F)F)c1)c1ccc(NC(=O)OCC)c(N)c1 [Compound 12, ethyl (2-amino-4-(prop-2-yn-1-yl(3-(trifluoromethyl)benzyl)amino)phenyl)carbamate]	100 to 1000	dose-dependent activation	
C=CCN(Cc1ccc(F)cc1)c1ccc(NC(=O)OCC)c(N)c1F [Compound 1, ethyl (4-(allyl(4-fluorobenzyl)amino)-2-amino-3-fluorophenyl)carbamate]	1000 to 5000		
C#CCN(Cc1ccc(F)cc1)c1ccc(NC(=O)OCC)c(N)c1F [Compound 7, ethyl (2-amino-3-fluoro-4-((4-fluorobenzyl)(prop-2-yn-1-yl)amino)phenyl)carbamate]	100 to 1000	dose-dependent activation	
CCOC(=O)Nc1c(N)cc(NCc2ccc(F)cc2)cc1F [Compound X, reference compound]		dose-dependent activation	EC50 [1]: 100 to 1000 nM
C=CCN(Cc1ccc(C(F)(F)F)cc1)c1ccc(NC(=O)OCC)c(N)c1F [Compound 2, ethyl (4-(allyl(4-(trifluoromethyl)benzyl)amino)-2-amino-3-fluorophenyl)carbamate]	100 to 1000		
C=CCN(Cc1cccc(C(F)(F)F)c1)c1ccc(NC(=O)OCC)c(N)c1F [Compound 3, ethyl (4-(allyl(3-(trifluoromethyl)benzyl)amino)-2-amino-3-fluorophenyl)carbamate]	5000 to 25000		
C#CCN(Cc1ccc(C(F)(F)F)cc1)c1ccc(NC(=O)OCC)c(N)c1 [Compound 11, ethyl (2-amino-4-(prop-2-yn-1-yl(4-(trifluoromethyl)benzyl)amino)phenyl)carbamate]	100 to 1000		
C#CCN(Cc1ccc(F)cc1)c1ccc(NC(=O)OCC)c(N)c1 [Compound 10, reference compound]	1000 to 5000	dose-dependent activation	

Source: patent US11858900B2, “Fluorinated 2-amino-4-(substituted amino)phenyl carbamate derivatives” (OcuTerra Therapeutics, Inc., priority 2016, dated 2024)
